Earlier results as cited in patent US20120003325A1, “USE OF HELIUM-OXYGEN GAS MIXTURES FOR TREATING PULMONARY ARTERIAL HYPERTENSION” (BAYER SCHERING PHARMA AKTIENGESELLSCHAFT, priority 2008, published 2012).

Settings: oil-water mixture

[He] [helium]
solubility relative to the solubility of oxygen or nitrogen: 30%
